Assay results from US20190046627A1, “USE OF A GNP-LLO91-99 COMPLEX FOR THE TREATMENT AND PREVENTION OF CANCER” (FUNDACIÓN INSTITUTO DE INVESTIGACIÓN MARQUES DE VALDECILLA, priority 2016, published 2019).
Entries after “also recorded” stand apart in the source; their conditions may differ.

Experiments:
murine melanoma B16OVA = test: Prevention of tumor growth, intraperitoneal melanoma after preventive treatment (Example 5); assay type: in vivo, mice; conditions: 50 μg/ml intraperitoneal 7 days before i.p. B16OVA, adult C57BL/6
Method: For the comparative study of the prevention of tumor growth in adults between the therapy of the invention and known anti-tumor therapies, the following therapies (50 μg/ml) were inoculated in female adults of the C57BL/6 strain in an intraperitoneal manner: LLO91-99 (only peptide from listeriolysin O of Listeria monocytogenes, LLO91-99), GNP (empty gluconanoparticles), GNP-LLO91-99 (gluconanoparticles synthesized with the peptide from listeriolysin O of Listeria monocytogenes, LLO91-99), GNP-GAPDH1-22 (nanoparticles synthesized with the peptide from glyceraldehyde-3-phosphate dehydrogenase of Listeria monocytogenes, GAPDH1-22) or saline (NT).
Following 7 days preventative post-treatment, the tumors were established following inoculation with 5×10^6 cells of murine melanoma B16OVA in an intraperitoneal manner. Following 7 days post-established of the tumor, the mice were sacrificed and the recovered tumors were measured by means of a gauge and the tumors were analyzed by means of immunohistochemical staining. The results of the reduction of the tumor growth and their intraperitoneal position are shown in FIG. 4A and FIG. 4B and the results of the analysis of the immunohistochemical staining in FIG. 4C.

murine melanoma B16F10 [1] = test: Reduction of the size of the tumor, subcutaneous murine melanoma in adult mice (Example 2); assay type: in vivo; conditions: adult C57BL/6 mice, s.c. B16F10 established 7 days, 50 μg/ml inoculated in the tumors for 5 days
Method: (§1) For the study of the reduction of the size of the tumor making use of different therapies and their comparison with that of the invention, 1×10^6 cells of murine melanoma B16F10 were inoculated in a subcutaneous manner in the left ventral flank of 8-12-week old female mice of the C57BL/6 strain.
(§2) After 7 days post-inoculation, 50 μg/ml of the following therapies were inoculated in the tumors for 5 days: LLO91-99 (only peptide from listeriolysin O of Listeria monocytogenes, LLO91-99), GNP (empty gluconanoparticles), GNP-LLO91-99 (gluconanoparticles synthesized with the peptide from listeriolysin O of Listeria monocytogenes, LLO91-99), GNP-GAPDH1-22 (nanoparticles synthesized with the peptide from glyceraldehyde-3-phosphate dehydrogenase of Listeria monocytogenes, GAPDH1-22) or no particle (NT). Dendritic cells loaded with the LLO91-99 (1×10^6 DC-LLO91-99) peptide were also included as a control, a vector previously used in therapy.
(§3) Following this treatment, the mice were sacrificed and the tumors recovered, measuring their size with a gauge.

murine melanoma B16F10 [2] = test: Reduction of the size of the tumor in newborns (Example 6); assay type: in vivo; conditions: 9-day old Balb/c mice, s.c. B16F10 established 5 days, 50 μg/ml in the tumors for 5 days
Method: as §1, with “tumor in newborns” for “tumor”, “5×10^5” for “1×10^6”, “interscapular area” for “left ventral flank”, “9-day” for “8-12-week”, “Balb/c” for “C57BL/6”
as §2, with “Following 5” for “After 7”, “GAPDH1-22). As” for “GAPDH1-22) or no particle (NT). Dendritic cells loaded with the LLO91-99 (1×10^6 DC-LLO91-99) peptide were also included as”, “therapy was also included, dendritic cells loaded with the LLO91-99 (1×10^5 DC-LLO91-99) peptide.” for “therapy.”
as §3

H-Gly-Tyr-Lys-Asp-Gly-Asn-Glu-Tyr-Ile-OH (H-GYKDGNEYI-OH) [LLO91-99, only peptide from listeriolysin O of Listeria monocytogenes, LLO91-99]
preventative / therapeutic effect on the melanoma (in words) (murine melanoma B16OVA): failed to achieve any therapeutic effect
therapeutic effect on the melanoma (in words) (murine melanoma B16F10 [1]): do not achieve any therapeutic effect; also recorded: failed to achieve any therapeutic effect
therapeutic effect on the melanoma in newborns (in words) (murine melanoma B16F10 [2]): failed to achieve any therapeutic effect
